Laboratory results as given in US20150209316A1, “AGENT FOR ENHANCING IMMUNITY CONTAINING GLUTATHIONE” (KYOWA HAKKO BIO CO., LTD., priority 2012, published 2015).

Tests used:
[1] = system: lymphocyte; conditions: by administering 2-ME; cited from earlier work
[2] = system: lymphocytes; conditions: after 3 months, both GSH groups (250 and 1000 mg/day oral), dose dependent
Procedure: The design included the recruitment of healthy subjects (28-79 yr. of age, mean=46.6 years) randomized into 3 groups (GSH at 1000 mg/day, GSH at 250 mg/day, and placebo). […] Blood samples were obtained from all subjects at baseline. Subjects began supplementation according to the following schedule: Glutathione capsules were provided by the sponsor, Kyowa Hakko USA. Capsules were formulated, and subjects began supplementation according to the following schedule as follows: • Group A, GSH: 500 mg/capsule and cellulose: 15 mg/capsule, (2 pills daily); • Group B, GSH: 125 mg/capsule and cellulose: 360 mg/capsule, (2 pills daily); • Group C (placebo), cellulose: 470 mg/capsule, (2 pills daily). […]
(§1) Blood samples were collected from an antecubital vein into 3 tubes containing sodium heparin as an anticoagulant and immediately placed on ice. […] Cell number was assessed after addition of 40 μl trypan blue to 10 μl of cell suspension using a hemocytometer. […]
Lymphocyte Proliferation—Lymphocyte samples from each of the 5 time points (0, 1, 3, 6, and 7 months) were thawed, washed 3 times and counted to determine cell viability. […] Cell proliferation was monitored by 3H-thymidine incorporation. Intracellular radioactivity was measured by liquid scintillation counting and results were expressed as cpm.

[3] = system: human K562 cells; conditions: after 3 months
Procedure: The design included the recruitment of healthy subjects (28-79 yr. of age, mean=46.6 years) randomized into 3 groups (GSH at 1000 mg/day, GSH at 250 mg/day, and placebo). […] Blood samples were obtained from all subjects at baseline. […] Capsules were formulated, and subjects began supplementation according to the following schedule as follows: • Group A, GSH: 500 mg/capsule and cellulose: 15 mg/capsule, (2 pills daily); • Group B, GSH: 125 mg/capsule and cellulose: 360 mg/capsule, (2 pills daily); • Group C (placebo), cellulose: 470 mg/capsule, (2 pills daily).
Eligible participants were randomly assigned to either placebo (Group C) or high (Group A) or low (Group B) dose glutathione groups. […]
as §1
NK Cell Cytotoxicity—NK cell cytotoxicity was assessed using human K562 cells, labeled with sodium ^51chromate as target cell. […] Lymphocyte samples from each of the five time points were thawed, washed 3 times, counted to determine cell viability and added in triplicate to the wells at an effector:target cell ratio of 10:1. After incubation for 4 hr. at 37° C., cells were collected and supernatant analyzed for radioactivity by gamma counting. […]

[4] = system: murine-derived splenic lymphocytes; conditions: in vitro; cited from earlier work
[5] = system: murine-derived splenic lymphocytes; conditions: in vitro; cited from earlier work; remark: listed apart in the source
[6] = oral administration to a human; cited from earlier work
[7] = system: lymphocyte; conditions: oral administration to a human; cited from earlier work
[8] = system: NK cell; conditions: oral administration to a human; cited from earlier work

For `OCCS` [2-melcaptoethanol], the lymphocyte proliferation [1] is given as “lymphocyte proliferation action”.

With `N[C@@H](CCC(=O)N[C@@H](CS)C(=O)NCC(=O)O)C(=O)O` [GSH, γ-L-Glu-L-Cys-Gly] the “glutathione concentration in lymphocytes compared to placebo group (Group C)” value (Group A, 1000 mg/day oral, 1 and 6 months, chi-square test) was “significant difference (p<0.05)”, the “maximum increase of lymphocyte total glutathione” value (high dose GSH group (1000 mg/day oral), after 6 months) was “about 30%” and the “time course of lymphocyte glutathione levels” value (high dose group (1.0 g/day oral), 1, 3, 6 months) was “levels progressively increasing from 1 to 3 to 6 months of administration”. The “mean proliferative capacity of lymphocytes (3H-thymidine, cpm)” value [2] was “Increases in mean proliferative capacity were observed”, the “mean % lysis values (NK cell cytotoxicity)” value ([3]; both GSH groups (250 and 1000 mg/day oral), dose dependent, effector:target 10:1) was “Increases in mean % lysis values were observed” and the “significance of increase in % lysis versus baseline” value ([3]; high GSH dose arm 1000 mg/day, Ppaired=0.01) was “only significant in the high GSH dose arm”. For the same compound, the “Con A induced lymphocyte proliferation activity” value [4] was “increased in a GSH concentration dependent fashion” and the “NK cell cytotoxic activity” value [5] was “increased in a GSH concentration dependent fashion”.

In the case of `CC(=O)N[C@@H](CS)C(=O)O` [N-acetylcysteine], the “glutathione concentration in immune cells” value [6] is listed as “increased”, the “PHA stimulated lymphocyte proliferation” value [7] is listed as “increased” and the “NK cell cytotoxic activity” value [8] is listed as “increased”.
